Test results reported in patent US10183014B2, “Ocular formulations for drug-delivery and protection of the anterior segment of the eye” (PanOptica, Inc., priority 2014, dated 2019).

Key:
FLT4 (VEGFR-3) = FLT4 (VEGFR-3) (Homo sapiens, UniProt P35916); test: In vitro inhibition of tyrosine kinases; type: biochemical; settings: read-out: Mean % Inhibition at 1 μM Compound-I; 1 μM (568.9 ng/mL)
ABL1 E255K = ABL1 E255K (Homo sapiens, UniProt P00519, E255K); test: In vitro inhibition of tyrosine kinases; type: biochemical; settings: read-out: Mean % Inhibition at 1 μM Compound-I; 1 μM (568.9 ng/mL)
ABL1 T315I = ABL1 T315I (Homo sapiens, UniProt P00519, T315I); test: In vitro inhibition of tyrosine kinases; type: biochemical; settings: read-out: Mean % Inhibition at 1 μM Compound-I; 1 μM (568.9 ng/mL)
MINK1 = MINK1 (Homo sapiens, UniProt Q8N4C8); test: In vitro inhibition of tyrosine kinases; type: biochemical; settings: read-out: Mean % Inhibition at 1 μM Compound-I; 1 μM (568.9 ng/mL)
PDGFRA T674I = PDGFRA T674I (Homo sapiens, UniProt P16234, T674I); test: In vitro inhibition of tyrosine kinases; type: biochemical; settings: read-out: Mean % Inhibition at 1 μM Compound-I; 1 μM (568.9 ng/mL)
SNF1LK2 = SNF1LK2 (Homo sapiens, UniProt Q9H0K1); test: In vitro inhibition of tyrosine kinases; type: biochemical; settings: read-out: Mean % Inhibition at 1 μM Compound-I; 1 μM (568.9 ng/mL)
[1] = 5-day PK with topical ocular Compound-I in cyclodextrin-based solutions (Example 6); type: in vivo, Dutch-Belted rabbits; settings: HPβCD solutions; for concentration at 1 h: q.d. groups (4, 5a, 6a, 7, 8, 11, 12), 4 days, 1 hr after first daily dose day 5
Method: All doses were administered with ±1 hour of the scheduled dose time, except on day 1 for Groups 1, 4, and 10. The first dose on day 1 was administered at 12:00 PM, and the second dose (for Groups 1 and 10) was administered approximately 4 hours after. This was due to delayed arrival of formulations. All other dosing for these groups was as scheduled. On day 1, Groups 4-8, and 11-12 received one dose (q.d.) for four (4) days. On days 1 through 4, Groups 1-3, and 9-10 received b.i.d. dosing approximately 8 hours apart for four (4) days.
Ocular sampling occurred one hour following the first daily dose on day 5 for all groups, except Groups 5b and 6b, where ocular sampling occurred 24 hours after the first daily dose on day 4.
Blood samples for plasma collection were obtained just prior to scheduled euthanasia for all animals. […] Cornea, central retina, and central choroid samples from groups 1-12 were assayed. Aqueous humor, peripheral retina, and peripheral choroid samples were not assayed.

[2] = Ocular pharmacokinetics of formulations, Example 20-4; type: in vivo, Dutch Belted rabbits; settings: Dutch Belted, rabbit, topical, Day 5, 1 hr post dose
Method: The study design (Table 18-1) consisted of forty-nine (49) Dutch Belted rabbits, each receiving a 30 μL bilateral topical ocular dose.
Ocular sampling occurred one hour following the first daily dose on Day 5 for all groups. Whole blood samples using K2EDTA as an anticoagulant were collected from all animals on Day 5, 1 hour post dose. The whole blood was placed on ice until samples were spun in a centrifuge to separate the plasma. Aqueous humor, conjunctiva, cornea, central retina, peripheral retina, central choroid, and peripheral choroid samples were collected following necropsy. Samples were then frozen at −70° C. or lower. For all Groups 1-16, plasma, central retina, central choroid, and cornea samples were assayed for PAN-90806.

Chain of MINK1 (Q8N4C8 whole entry, species assumed): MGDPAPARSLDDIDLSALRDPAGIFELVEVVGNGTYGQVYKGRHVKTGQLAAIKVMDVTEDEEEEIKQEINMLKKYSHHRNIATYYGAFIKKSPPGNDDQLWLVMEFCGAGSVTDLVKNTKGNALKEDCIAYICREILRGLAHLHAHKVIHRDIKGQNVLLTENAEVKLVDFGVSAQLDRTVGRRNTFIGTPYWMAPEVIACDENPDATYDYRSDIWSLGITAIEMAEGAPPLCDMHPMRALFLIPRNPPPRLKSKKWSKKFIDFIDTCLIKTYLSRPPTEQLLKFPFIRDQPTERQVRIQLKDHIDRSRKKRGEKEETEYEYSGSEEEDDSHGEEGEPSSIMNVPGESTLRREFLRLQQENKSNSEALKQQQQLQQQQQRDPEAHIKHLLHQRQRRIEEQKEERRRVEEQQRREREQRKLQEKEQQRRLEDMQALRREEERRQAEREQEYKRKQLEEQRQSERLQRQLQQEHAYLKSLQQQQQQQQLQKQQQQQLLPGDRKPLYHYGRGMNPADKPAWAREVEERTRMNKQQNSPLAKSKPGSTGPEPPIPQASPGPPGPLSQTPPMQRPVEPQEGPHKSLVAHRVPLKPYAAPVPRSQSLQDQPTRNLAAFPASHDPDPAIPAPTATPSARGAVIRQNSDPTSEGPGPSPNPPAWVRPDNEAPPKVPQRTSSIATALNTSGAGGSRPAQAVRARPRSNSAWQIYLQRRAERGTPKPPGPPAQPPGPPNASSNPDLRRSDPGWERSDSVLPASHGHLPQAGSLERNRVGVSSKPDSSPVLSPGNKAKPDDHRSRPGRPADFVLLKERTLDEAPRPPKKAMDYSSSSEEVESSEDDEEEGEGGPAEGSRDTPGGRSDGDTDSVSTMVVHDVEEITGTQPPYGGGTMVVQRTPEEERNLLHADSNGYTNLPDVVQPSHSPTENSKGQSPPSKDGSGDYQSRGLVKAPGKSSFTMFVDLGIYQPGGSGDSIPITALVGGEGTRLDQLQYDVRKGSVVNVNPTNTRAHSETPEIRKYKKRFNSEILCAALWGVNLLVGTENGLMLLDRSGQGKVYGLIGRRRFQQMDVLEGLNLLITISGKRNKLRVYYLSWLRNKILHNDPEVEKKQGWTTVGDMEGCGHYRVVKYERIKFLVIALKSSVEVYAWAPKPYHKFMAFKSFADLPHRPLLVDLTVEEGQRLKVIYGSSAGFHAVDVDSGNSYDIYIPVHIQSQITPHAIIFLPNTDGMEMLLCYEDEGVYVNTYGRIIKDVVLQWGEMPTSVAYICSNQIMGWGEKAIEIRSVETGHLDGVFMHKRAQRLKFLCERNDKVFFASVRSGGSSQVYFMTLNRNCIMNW
Chain of FLT4 (VEGFR-3) (P35916 25-1363, species assumed): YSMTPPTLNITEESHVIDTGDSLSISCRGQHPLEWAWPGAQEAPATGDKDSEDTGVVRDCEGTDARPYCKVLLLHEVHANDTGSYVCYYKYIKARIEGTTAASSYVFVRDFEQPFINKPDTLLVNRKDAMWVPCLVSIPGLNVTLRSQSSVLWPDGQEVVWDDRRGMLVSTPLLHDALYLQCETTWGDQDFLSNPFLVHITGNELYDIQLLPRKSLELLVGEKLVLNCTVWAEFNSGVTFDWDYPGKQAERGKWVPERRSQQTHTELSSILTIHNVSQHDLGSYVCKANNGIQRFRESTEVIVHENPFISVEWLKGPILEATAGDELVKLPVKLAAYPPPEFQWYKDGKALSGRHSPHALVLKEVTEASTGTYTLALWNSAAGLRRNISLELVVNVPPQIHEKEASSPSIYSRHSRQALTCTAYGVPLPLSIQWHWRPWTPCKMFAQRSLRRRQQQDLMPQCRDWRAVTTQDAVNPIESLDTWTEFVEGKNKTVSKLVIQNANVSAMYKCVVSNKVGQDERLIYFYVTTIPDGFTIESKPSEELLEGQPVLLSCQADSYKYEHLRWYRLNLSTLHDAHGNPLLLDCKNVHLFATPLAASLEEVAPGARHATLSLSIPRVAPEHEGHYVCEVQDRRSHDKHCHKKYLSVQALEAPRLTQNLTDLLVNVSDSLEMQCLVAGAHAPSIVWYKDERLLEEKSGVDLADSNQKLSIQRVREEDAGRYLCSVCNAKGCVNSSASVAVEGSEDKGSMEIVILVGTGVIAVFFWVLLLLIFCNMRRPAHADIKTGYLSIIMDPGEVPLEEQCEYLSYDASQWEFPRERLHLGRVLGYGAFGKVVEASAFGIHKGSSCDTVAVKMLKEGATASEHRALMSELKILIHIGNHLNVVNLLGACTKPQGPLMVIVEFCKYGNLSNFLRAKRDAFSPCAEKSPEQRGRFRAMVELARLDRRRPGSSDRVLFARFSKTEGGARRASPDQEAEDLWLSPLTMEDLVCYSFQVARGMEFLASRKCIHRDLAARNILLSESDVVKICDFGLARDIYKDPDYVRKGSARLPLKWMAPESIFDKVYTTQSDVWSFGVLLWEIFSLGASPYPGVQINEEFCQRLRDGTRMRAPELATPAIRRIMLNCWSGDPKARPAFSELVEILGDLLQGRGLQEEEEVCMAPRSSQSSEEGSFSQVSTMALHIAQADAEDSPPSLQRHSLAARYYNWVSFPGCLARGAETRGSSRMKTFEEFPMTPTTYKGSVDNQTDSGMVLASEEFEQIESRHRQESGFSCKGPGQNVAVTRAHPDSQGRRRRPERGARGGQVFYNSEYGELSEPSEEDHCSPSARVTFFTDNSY
Chain of PDGFRA T674I (P16234 24-1089 T674I): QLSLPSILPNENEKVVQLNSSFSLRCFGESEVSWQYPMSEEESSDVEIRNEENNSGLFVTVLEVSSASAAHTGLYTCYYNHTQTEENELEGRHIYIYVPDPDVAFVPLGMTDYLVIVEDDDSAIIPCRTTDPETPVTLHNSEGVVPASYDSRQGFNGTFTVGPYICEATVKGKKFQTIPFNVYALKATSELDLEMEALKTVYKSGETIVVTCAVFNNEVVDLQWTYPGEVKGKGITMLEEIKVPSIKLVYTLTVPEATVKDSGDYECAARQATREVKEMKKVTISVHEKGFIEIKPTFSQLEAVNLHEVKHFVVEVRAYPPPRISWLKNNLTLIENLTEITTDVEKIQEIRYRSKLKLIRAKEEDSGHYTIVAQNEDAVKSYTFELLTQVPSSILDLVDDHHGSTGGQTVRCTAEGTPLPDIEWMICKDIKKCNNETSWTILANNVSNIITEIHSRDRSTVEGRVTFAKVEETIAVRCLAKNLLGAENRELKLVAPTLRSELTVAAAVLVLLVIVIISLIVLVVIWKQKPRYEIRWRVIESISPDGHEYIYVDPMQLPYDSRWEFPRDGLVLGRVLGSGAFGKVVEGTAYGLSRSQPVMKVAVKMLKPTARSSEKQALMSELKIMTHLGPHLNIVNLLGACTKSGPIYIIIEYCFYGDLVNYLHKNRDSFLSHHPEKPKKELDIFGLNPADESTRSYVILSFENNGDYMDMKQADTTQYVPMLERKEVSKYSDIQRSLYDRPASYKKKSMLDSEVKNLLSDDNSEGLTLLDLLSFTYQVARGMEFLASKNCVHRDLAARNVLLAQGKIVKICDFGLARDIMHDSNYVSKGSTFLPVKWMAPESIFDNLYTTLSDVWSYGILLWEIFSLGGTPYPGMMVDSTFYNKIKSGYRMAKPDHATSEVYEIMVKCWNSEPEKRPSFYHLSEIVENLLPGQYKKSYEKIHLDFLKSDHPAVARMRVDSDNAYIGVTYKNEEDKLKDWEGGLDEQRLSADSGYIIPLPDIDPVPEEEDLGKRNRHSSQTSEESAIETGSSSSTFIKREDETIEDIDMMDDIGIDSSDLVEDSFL
Chain of SNF1LK2 (Q9H0K1 whole entry, species assumed): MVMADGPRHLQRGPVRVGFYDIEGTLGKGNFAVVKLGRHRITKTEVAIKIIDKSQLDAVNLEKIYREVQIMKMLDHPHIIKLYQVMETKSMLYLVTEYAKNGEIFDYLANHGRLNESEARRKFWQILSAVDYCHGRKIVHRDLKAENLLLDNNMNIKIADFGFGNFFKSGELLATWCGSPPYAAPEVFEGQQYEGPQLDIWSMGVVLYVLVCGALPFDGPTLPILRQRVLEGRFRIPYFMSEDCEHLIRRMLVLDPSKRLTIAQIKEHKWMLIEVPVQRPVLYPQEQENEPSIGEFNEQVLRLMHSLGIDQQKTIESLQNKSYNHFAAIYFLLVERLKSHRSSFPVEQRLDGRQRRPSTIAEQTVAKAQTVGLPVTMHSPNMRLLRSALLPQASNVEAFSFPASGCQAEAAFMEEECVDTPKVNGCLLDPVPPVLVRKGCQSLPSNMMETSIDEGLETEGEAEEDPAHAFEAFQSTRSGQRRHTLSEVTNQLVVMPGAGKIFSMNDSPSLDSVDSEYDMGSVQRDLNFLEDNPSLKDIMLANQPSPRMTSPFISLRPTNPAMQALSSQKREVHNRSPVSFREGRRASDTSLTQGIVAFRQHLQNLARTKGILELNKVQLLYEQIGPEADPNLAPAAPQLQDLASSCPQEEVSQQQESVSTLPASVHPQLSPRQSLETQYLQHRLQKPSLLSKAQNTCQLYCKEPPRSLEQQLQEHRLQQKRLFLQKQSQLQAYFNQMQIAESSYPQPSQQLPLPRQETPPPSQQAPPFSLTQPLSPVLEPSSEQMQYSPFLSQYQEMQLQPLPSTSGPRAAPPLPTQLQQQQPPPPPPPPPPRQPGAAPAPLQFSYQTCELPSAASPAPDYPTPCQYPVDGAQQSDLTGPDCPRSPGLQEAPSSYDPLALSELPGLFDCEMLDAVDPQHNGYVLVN

With Cl.NC(=O)c1c(OCc2c(F)cc(Br)cc2F)nsc1NC(=O)NCCCCN1CCCC1 [Compound-I, 3-[(4-bromo-2,6-difluorophenyl)methoxy]-5-[[[[4-(1-pyrrolidinyl)butyl]amino]carbonyl]amino]-4-isothiazolecarboxamide hydrochloride] the inhibition at 1 µM (FLT4 (VEGFR-3)) was 95%, the inhibition at 1 µM (ABL1 E255K) was 90% and the inhibition at 1 µM (ABL1 T315I) was 101%. For the same molecule, the inhibition at 1 µM (MINK1) was 100%, the inhibition at 1 µM (PDGFRA T674I) was 86% and the inhibition at 1 µM (SNF1LK2) was 82%. The concentration at 24 h ([1]; Dutch-Belted, rabbit, central choroid, topical, 30 μL bilateral, q.d. groups 5b, 6b, 24 hr after first daily dose day 4) was 194 nM, the concentration at 1 h ([1]; Dutch-Belted, rabbit, central choroid, topical, 30 μL bilateral, read-out: Average Concentration Central Choroid) was 203 nM and the concentration at 1 h ([1]; Dutch-Belted, rabbit, central retina, topical, 30 μL bilateral, read-out: Average Concentration Central Retina) was 48.1 nM. The “Average Concentration Central Retina” value ([1]; q.d. groups 5b, 6b, 24 hr after first daily dose day 4) was “<LLOQ”, the concentration at 1 h ([2]; central choroid, 4 mg/mL (30 μL per eye, bilateral), pH 6, Group 3: 4 mg/mL Salt, eye drops solution (control), pH 6, QD, read-out: Central Choroid concentration) was 181 nM and the concentration at 1 h ([2]; central choroid, 4 mg/mL (30 μL per eye, bilateral), Group 16: 4 mg/mL Salt suspension, PSD 30 μm/XL, TRIS 0.60%, glycerol 2%, HEC 0.2%, HPMC 0.08%, VitK3 1 μM, pH 7, QD, read-out: Central Choroid concentration) was 208 nM. For the same molecule, the concentration at 1 h ([2]; central choroid, 30 μL per eye of 4 mg/mL suspension, Group 7: 4 mg/mL Salt suspension, PSD 30 μm/XL, TRIS 0.60%, glycerol 2%, HEC 0.3%, Tylox 0.04%, VitK3 1 μM, pH 6, QD, read-out: Central Choroid concentration) was 142 nM, the concentration at 1 h ([2]; central choroid, 30 μL per eye of 4 mg/mL suspension, Group 9: 4 mg/mL Salt suspension, PSD 30 μm/XL, TRIS 0.60%, glycerol 2%, HEC 0.3%, Tylox 0.04%, VitK3 1 μM, pH 7, QD, read-out: Central Choroid concentration) was 224 nM and the concentration at 1 h ([2]; central choroid, 30 μL per eye of 6 mg/mL suspension, Group 6: 6 mg/mL Salt suspension, PSD 30 μm/XL, TRIS 0.60%, glycerol 2%, HEC 0.2%, HPMC 0.08%, VitK3 1 μM, pH 6, QD, read-out: Central Choroid concentration) was 243 nM. The concentration at 1 h ([2]; central retina, 0.3 mg/mL (30 μL per eye, bilateral), pH 6, Group 1: 0.3 mg/mL Salt, pH 6, BID, read-out: Central Retina concentration) was 16.3 nM, the concentration at 1 h ([2]; central retina, 1 mg/mL (30 μL per eye, bilateral), pH 6, Group 2: 1 mg/mL Salt, eye drops solution (control), pH 6, QD, read-out: Central Retina concentration) was 34.7 nM and the concentration at 1 h ([2]; central retina, 4 mg/mL (30 μL per eye, bilateral), pH 6, Group 3: 4 mg/mL Salt, eye drops solution (control), pH 6, QD, read-out: Central Retina concentration) was 83.7 nM. For the same molecule, the concentration at 1 h ([2]; central retina, 4 mg/mL (30 μL per eye, bilateral), Group 16: 4 mg/mL Salt suspension, PSD 30 μm/XL, TRIS 0.60%, glycerol 2%, HEC 0.2%, HPMC 0.08%, VitK3 1 μM, pH 7, QD, read-out: Central Retina concentration) was 74.4 nM, the concentration at 1 h ([2]; central retina, 30 μL per eye of 6 mg/mL suspension, Group 6: 6 mg/mL Salt suspension, PSD 30 μm/XL, TRIS 0.60%, glycerol 2%, HEC 0.2%, HPMC 0.08%, VitK3 1 μM, pH 6, QD, read-out: Central Retina concentration) was 136 nM and the concentration at 1 h ([2]; cornea, 0.3 mg/mL (30 μL per eye, bilateral), pH 6, Group 1: 0.3 mg/mL Salt, pH 6, BID, read-out: Cornea concentration) was 3330 nM. It also gave a concentration at 1 h ([2]; cornea, 1 mg/mL (30 μL per eye, bilateral), pH 6, Group 2: 1 mg/mL Salt, eye drops solution (control), pH 6, QD, read-out: Cornea concentration) of 7060 nM, a concentration at 1 h ([2]; cornea, 4 mg/mL (30 μL per eye, bilateral), pH 6, Group 3: 4 mg/mL Salt, eye drops solution (control), pH 6, QD, read-out: Cornea concentration) of 15900 nM and a concentration at 1 h ([2]; cornea, 4 mg/mL (30 μL per eye, bilateral), Group 16: 4 mg/mL Salt suspension, PSD 30 μm/XL, TRIS 0.60%, glycerol 2%, HEC 0.2%, HPMC 0.08%, VitK3 1 μM, pH 7, QD, read-out: Cornea concentration) of 14700 nM. For the same molecule, the concentration at 1 h ([2]; cornea, 30 μL per eye of 6 mg/mL suspension, QD, pH 6, Group 6: 6 mg/mL Salt suspension, PSD 30 μm/XL, TRIS 0.60%, glycerol 2%, HEC 0.2%, HPMC 0.08%, VitK3 1 μM, pH 6, QD, read-out: Cornea concentration) was 14400 nM, the concentration at 1 h ([2]; plasma, 1 mg/mL (30 μL per eye, bilateral), pH 6, Group 2: 1 mg/mL Salt, eye drops solution (control), pH 6, QD, read-out: Plasma concentration) was 2.67 nM and the concentration at 1 h ([2]; plasma, 4 mg/mL (30 μL per eye, bilateral), pH 6, Group 3: 4 mg/mL Salt, eye drops solution (control), pH 6, QD, read-out: Plasma concentration) was 4.5 nM. For the same molecule, the concentration at 1 h ([2]; plasma, 30 μL per eye of 4 mg/mL suspension, Group 7: 4 mg/mL Salt suspension, PSD 30 μm/XL, TRIS 0.60%, glycerol 2%, HEC 0.3%, Tylox 0.04%, VitK3 1 μM, pH 6, QD, read-out: Plasma concentration) was 5.56 nM and the concentration at 1 h ([2]; plasma, 30 μL per eye of 6 mg/mL suspension, QD, pH 6, Group 6: 6 mg/mL Salt suspension, PSD 30 μm/XL, TRIS 0.60%, glycerol 2%, HEC 0.2%, HPMC 0.08%, VitK3 1 μM, pH 6, QD, read-out: Plasma concentration) was 9.98 nM.
